From ChEMBL document CHEMBL1140814 (Bioorg Med Chem Lett, 2008) come the findings set out here.

Experiment [1] in a line: Intrinsic activity at muscarinic M4 receptor in guinea-pig lung strips assessed as ratio of agonist activity to activity of arecaidine propargyl ester. Format: functional, Cavia porcellus.
The nature of experiment [2]: Intrinsic activity at muscarinic M1 receptor in rabbit stimulated vas deferens assessed as ratio of agonist activity to activity of McN-A-343. Format: functional, Oryctolagus cuniculus.
Experiment [3] addresses Muscarinic acetylcholine receptor M3 (Cavia porcellus) (UniProt Q8VH26). Put plainly: Intrinsic activity at muscarinic M3 receptor in guinea-pig ileum assessed as ratio of agonist activity to activity of arecaidine propargyl ester. Format: functional, tissue-based.
Experiment [4] deals with T1, Muscarinic acetylcholine receptor M4 (Homo sapiens, UniProt P08173).
T1 sequence (P08173 whole entry): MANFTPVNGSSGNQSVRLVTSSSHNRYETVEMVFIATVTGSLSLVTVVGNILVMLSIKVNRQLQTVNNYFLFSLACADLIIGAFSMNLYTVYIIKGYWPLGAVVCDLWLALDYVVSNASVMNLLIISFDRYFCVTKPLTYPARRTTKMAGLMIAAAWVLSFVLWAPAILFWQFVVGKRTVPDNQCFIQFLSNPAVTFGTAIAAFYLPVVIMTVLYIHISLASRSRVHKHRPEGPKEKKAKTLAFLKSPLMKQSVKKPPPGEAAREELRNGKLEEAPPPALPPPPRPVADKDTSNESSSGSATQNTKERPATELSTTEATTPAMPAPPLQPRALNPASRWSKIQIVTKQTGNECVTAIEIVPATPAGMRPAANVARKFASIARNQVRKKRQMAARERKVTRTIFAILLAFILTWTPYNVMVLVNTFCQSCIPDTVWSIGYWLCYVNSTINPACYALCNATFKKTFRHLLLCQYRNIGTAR
Put plainly: Displacement of [3H]NMS from human cloned muscarinic M4 receptor expressed in CHO cells. Format: cell-based. For orientation: Loss of bound radioactivity is the signal in a displacement assay; it reports binding, not function.

Experiment [5] concerns the target T2, Muscarinic acetylcholine receptor M5 (Homo sapiens, UniProt P08912).
T2 sequence (P08912 whole entry): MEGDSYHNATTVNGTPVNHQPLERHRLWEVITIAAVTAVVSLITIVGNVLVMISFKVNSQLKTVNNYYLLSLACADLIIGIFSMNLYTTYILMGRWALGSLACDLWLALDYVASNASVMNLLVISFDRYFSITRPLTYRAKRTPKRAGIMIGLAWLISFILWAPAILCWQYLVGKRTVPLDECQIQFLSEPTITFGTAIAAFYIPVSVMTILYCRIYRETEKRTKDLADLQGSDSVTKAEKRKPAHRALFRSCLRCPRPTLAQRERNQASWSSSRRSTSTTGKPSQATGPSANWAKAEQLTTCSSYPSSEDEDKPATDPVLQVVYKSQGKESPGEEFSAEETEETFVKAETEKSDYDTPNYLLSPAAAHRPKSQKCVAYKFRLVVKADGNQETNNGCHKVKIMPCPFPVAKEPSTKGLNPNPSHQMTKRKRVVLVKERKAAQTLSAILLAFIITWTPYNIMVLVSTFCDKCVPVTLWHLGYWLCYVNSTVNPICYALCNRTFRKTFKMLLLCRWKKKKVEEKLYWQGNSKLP
Put plainly: Displacement of [3H]NMS from human cloned muscarinic M5 receptor expressed in CHO cells. Format: cell-based.

The target of experiment [6] is T3, Muscarinic acetylcholine receptor M2 (Homo sapiens, UniProt P08172).
T3 sequence (P08172 whole entry): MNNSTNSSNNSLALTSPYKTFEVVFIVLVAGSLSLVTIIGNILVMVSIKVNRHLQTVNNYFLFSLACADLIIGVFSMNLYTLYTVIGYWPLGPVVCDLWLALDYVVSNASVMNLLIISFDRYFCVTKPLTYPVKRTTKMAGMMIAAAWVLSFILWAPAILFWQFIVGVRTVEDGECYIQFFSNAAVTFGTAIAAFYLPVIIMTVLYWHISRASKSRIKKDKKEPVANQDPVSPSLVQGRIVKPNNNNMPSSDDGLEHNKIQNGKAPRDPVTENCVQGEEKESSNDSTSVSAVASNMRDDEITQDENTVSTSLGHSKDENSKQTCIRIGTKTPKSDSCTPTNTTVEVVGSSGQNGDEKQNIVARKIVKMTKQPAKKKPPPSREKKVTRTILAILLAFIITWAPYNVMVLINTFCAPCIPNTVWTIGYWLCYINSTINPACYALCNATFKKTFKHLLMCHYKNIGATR
The experiment is described as follows: Displacement of [3H]NMS from human cloned muscarinic M2 receptor expressed in CHO cells. Format: cell-based.

The nature of experiment [7]: Intrinsic activity at muscarinic M2 receptor in guinea-pig stimulated left atria assessed as ratio of agonist activity to activity of arecaidine propargyl ester. Format: functional, Cavia porcellus.
Experiment [8] can be described thus: Antagonist activity at muscarinic M1 receptor in rabbit vas deferens up to 10 uM. Format: functional, Oryctolagus cuniculus.

Each structure is given as a SMILES string.

Sequence of Muscarinic acetylcholine receptor M3 (Cavia porcellus) (Q8VH26 1-587): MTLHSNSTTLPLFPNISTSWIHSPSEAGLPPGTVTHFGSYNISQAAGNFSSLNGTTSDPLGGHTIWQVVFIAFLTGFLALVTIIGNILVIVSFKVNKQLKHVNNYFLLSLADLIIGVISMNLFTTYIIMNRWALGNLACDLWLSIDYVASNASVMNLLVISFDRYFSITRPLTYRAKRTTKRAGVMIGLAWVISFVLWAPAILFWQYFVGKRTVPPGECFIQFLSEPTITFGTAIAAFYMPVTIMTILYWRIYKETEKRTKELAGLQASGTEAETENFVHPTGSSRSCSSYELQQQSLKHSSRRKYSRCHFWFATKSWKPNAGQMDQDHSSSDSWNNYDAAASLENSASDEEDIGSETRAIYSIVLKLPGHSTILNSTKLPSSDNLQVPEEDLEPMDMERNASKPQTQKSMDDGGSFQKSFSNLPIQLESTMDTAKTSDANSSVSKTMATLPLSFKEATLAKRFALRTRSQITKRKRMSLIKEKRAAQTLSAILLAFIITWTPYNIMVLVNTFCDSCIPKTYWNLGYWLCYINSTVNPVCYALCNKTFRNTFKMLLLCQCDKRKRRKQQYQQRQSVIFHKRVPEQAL

Consider `C[C@H]1COC[C@@H](C[N+](C)(C)C)O1.[I-]`, for which the Intrinsic activity in experiment [1] and in experiment [2] was 1 throughout. Moreover, the values for the pD2 in experiment [2] and in experiment [3] were 6.78 and 7.65, respectively. For the same compound, the Ki (in general, the dissociation constant of the complex between target and ligand, obtained from inhibition or displacement) in experiment [4] was 9.77 µM; in experiment [5], 4.57 µM; in experiment [6] it was 1.26 µM.
As for `CC1COCC(C[N+](C)(C)C)O1` (racemic; form 1), the pD2 in experiment [3] is 7.34.
`C[C@H]1COC[C@H](C[N+](C)(C)C)O1.[I-]`: the Intrinsic activity in experiment [1] is 0.77; in experiment [7], 0.9. Also, the values for the pD2 in experiment [1], in experiment [3] and in experiment [7] were 5.79, 6.26 and 6.18, respectively. Moreover, the inhibition constant (Ki) in experiment [4] is 45.7 µM; in experiment [6], 5.25 µM.
With `CC1OC(C[N+](C)(C)C)CC1O` (racemic), the Intrinsic activity in experiment [3] and in experiment [7] was 1 in each case. The results for the pD2 in experiment [3] and in experiment [7] were 7.29 and 6.72, respectively.
With `C[C@@H]1COC[C@H](C[N+](C)(C)C)O1.[I-]`, the pD2 was 6.53 in experiment [3] and <5 in experiment [8]. In addition, the inhibitory constant (Ki) was 69.2 µM in experiment [4], 44.7 µM in experiment [5] and 6.92 µM in experiment [6]. Further, the Intrinsic activity in experiment [7] is reported as 1.
In the case of `CC1COCC(C[N+](C)(C)C)O1.[I-]` (racemic; form 2), the pD2 in experiment [2] stood at 5.08. For the same compound, the results for the Ki in experiment [4], in experiment [5] and in experiment [6] were 87.1 µM, 67.6 µM and 4.9 µM, respectively.
Take `C[C@@H]1COC[C@@H](C[N+](C)(C)C)O1.[I-]`: the Intrinsic activity in experiment [1] was found to be 0.42; in experiment [7] it was 0.62. In addition, the values for the pD2 in experiment [1], in experiment [3] and in experiment [7] were 5.22, 4.54 and 5.27, respectively. For the same compound, the Ki is > 100 µM in experiment [4], 87.1 µM in experiment [5] and 61.7 µM in experiment [6].
As to `CC1COCC(C[N+](C)(C)C)O1.[I-]` (racemic; form 1), the Intrinsic activity in experiment [2] and in experiment [7] was 1 in each case. Further, the pD2 in experiment [2] is recorded as 5.65. Besides, the inhibition constant (Ki) was 11.5 µM in experiment [4], 7.76 µM in experiment [5] and 2.09 µM in experiment [6].
